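How tested: cells in 96-well plates exposed to compound for 48 hours at five concentrations. GI50: concentration for 50% inhibition of growth. TGI: total growth inhibition.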
Legend:
Experiment in all cases: inhibition of tumour cell growth, NCI panel, 48 h
[1] = system: SK-MEL-5 melanoma
[2] = system: MALME-3M melanoma
[3] = system: NCI-H460 lung
[4] = system: A549 NSCLC
[5] = system: EKVX NSCLC
[6] = system: OVCAR-3 ovarian
[7] = system: RPMI-8226 leukemia
[8] = system: HCT-116 colon
[9] = system: SN12C renal
[10] = system: SF-295 CNS
[11] = system: CCRF-CEM leukemia
[12] = system: SK-MEL-28 melanoma
[13] = system: HCC-2998 colon
[14] = system: COLO 205 colon
[15] = system: HS 578T breast
[16] = system: OVCAR-5 ovarian
[17] = system: NCI-H226 lung
[18] = system: IGROV1 ovarian
[19] = system: MOLT-4 leukemia
[20] = system: U251 CNS
[21] = system: OVCAR-4 ovarian
[22] = system: MCF7 breast
[23] = system: HT29 colon
[24] = system: SK-MEL-2 melanoma
[25] = system: HCT-15 colon
[26] = system: M14 melanoma
[27] = system: ACHN renal
[28] = system: UACC-257 melanoma
[29] = system: PC-3 prostate
[30] = system: 786-0 renal
[31] = system: DU-145 prostate
[32] = system: NCI-H23 lung
[33] = system: SF-268 CNS
[34] = system: LOX IMVI melanoma
[35] = system: HL-60(TB) leukemia
[36] = system: MDA-MB-231 breast
[37] = system: SNB-19 CNS
[38] = system: HOP-62 NSCLC
[39] = system: A498 renal
[40] = system: K-562 leukemia
[41] = system: SR leukemia
[42] = system: MDA-MB-435
[43] = system: KM12 colon
[44] = system: HOP-92 NSCLC
[45] = system: CAKI-1 renal
[46] = system: NCI-H522 lung
[47] = system: SF-539 CNS
[48] = system: SK-OV-3 ovarian
[49] = system: UACC-62 melanoma
[50] = system: OVCAR-8 ovarian
[51] = system: TK-10 renal
[52] = system: NCI/ADR-RES ovarian
[53] = system: UO-31 renal
[54] = system: BT-549 breast
[55] = system: T-47D breast
[56] = system: SNB-75 CNS
[57] = system: SW-620 colon
[58] = system: RXF 393 renal

`O=C(O)/C(=C/C(=O)c1ccc(Cl)cc1)NNc1ccc([N+](=O)[O-])cc1[N+](=O)[O-]` showed a TGI [1] of over 100 µM, a TGI [2] of over 100 µM and a TGI [3] of over 100 µM. For the same molecule, the TGI [4] was over 100 µM, the TGI [5] was over 100 µM and the TGI [6] was 94.8 µM. It also gave a TGI [7] of 96.9 µM, a TGI [8] of 36.3 µM and a TGI [9] of over 100 µM. For the same molecule, the TGI [10] was over 100 µM, the TGI [11] was 70 µM and the TGI [12] was over 100 µM. It also gave a TGI [13] of over 100 µM, a TGI [14] of over 100 µM and a TGI [15] of 94.4 µM. The TGI [16] was over 100 µM, the TGI [17] was 69.3 µM and the TGI [18] was over 100 µM. For the same molecule, the TGI [19] was over 100 µM, the TGI [20] was over 100 µM and the TGI [21] was 42 µM. It also gave a TGI [22] of over 100 µM, a TGI [23] of over 100 µM and a TGI [24] of over 100 µM. For the same molecule, the TGI [25] was over 100 µM, the TGI [26] was over 100 µM and the TGI [27] was over 100 µM. It also gave a TGI [28] of over 100 µM, a TGI [29] of over 100 µM and a TGI [30] of 53.4 µM. It also gave a TGI [31] of over 100 µM, a TGI [32] of over 100 µM and a TGI [33] of over 100 µM. It also gave a TGI [34] of over 100 µM, a TGI [35] of over 100 µM and a TGI [36] of over 100 µM. It also gave a TGI [37] of over 100 µM, a TGI [38] of 70 µM and a TGI [39] of over 100 µM. For the same molecule, the TGI [40] was over 100 µM, the TGI [41] was over 100 µM and the TGI [42] was over 100 µM. For the same molecule, the TGI [43] was over 100 µM, the TGI [44] was 57.1 µM and the TGI [45] was 46 µM. It also gave a TGI [46] of 46 µM, a TGI [47] of over 100 µM and a TGI [48] of over 100 µM. The TGI [49] was over 100 µM, the TGI [50] was over 100 µM and the TGI [51] was over 100 µM. The TGI [52] was over 100 µM, the TGI [53] was 44.2 µM and the TGI [54] was 92.5 µM. For the same molecule, the TGI [55] was over 100 µM.
`CC(=O)O[C@H]1CCC2(C)C(=CCC3C2CCC2(C)/C(=N/OC(=O)c4ccc(N(CCCl)CCCl)cc4)CCC32)C1` (stereo partly specified) gave a GI50 [1] of 20.4 µM, a TGI [1] of over 100 µM and a GI50 [2] of over 65.4 µM. The TGI [2] was over 100 µM, the GI50 [3] was 4.65 µM and the TGI [3] was over 100 µM. The GI50 [4] was 2.45 µM, the TGI [4] was 8.37 µM and the GI50 [56] was 4.47 µM. It also gave a TGI [56] of 42.7 µM, a GI50 [5] of 8.78 µM and a TGI [5] of over 100 µM. For the same molecule, the GI50 [6] was 9.84 µM, the TGI [6] was over 100 µM and the GI50 [7] was 5.68 µM. The TGI [7] was over 100 µM, the GI50 [8] was 2.34 µM and the TGI [8] was over 100 µM. It also gave a GI50 [9] of 5.48 µM, a TGI [9] of over 100 µM and a GI50 [10] of 3.84 µM. It also gave a TGI [10] of over 58 µM, a GI50 [12] of over 100 µM and a TGI [12] of over 100 µM. For the same molecule, the GI50 [13] was over 55.5 µM, the TGI [13] was over 100 µM and the GI50 [14] was over 100 µM. It also gave a TGI [14] of over 100 µM, a GI50 [15] of 2.41 µM and a TGI [15] of 13.5 µM. The GI50 [57] was over 100 µM, the TGI [57] was over 100 µM and the GI50 [16] was over 72.8 µM. For the same molecule, the TGI [16] was over 100 µM, the GI50 [17] was over 45.3 µM and the TGI [17] was over 100 µM. The GI50 [19] was 4.91 µM, the TGI [19] was over 100 µM and the GI50 [20] was 1.88 µM. It also gave a TGI [20] of over 28.8 µM, a GI50 [21] of 7.78 µM and a TGI [21] of over 100 µM. For the same molecule, the GI50 [22] was 12.7 µM, the TGI [22] was over 100 µM and the GI50 [23] was 4.92 µM. The TGI [23] was over 100 µM, the GI50 [24] was 32.4 µM and the TGI [24] was over 100 µM. For the same molecule, the GI50 [25] was 8.87 µM, the TGI [25] was over 100 µM and the GI50 [26] was 20.3 µM. The TGI [26] was over 100 µM, the GI50 [27] was 5.19 µM and the TGI [27] was over 100 µM. It also gave a GI50 [28] of over 100 µM, a TGI [28] of over 100 µM and a GI50 [29] of 7.99 µM. The TGI [29] was over 100 µM, the GI50 [30] was 4.21 µM and the TGI [30] was over 100 µM. It also gave a GI50 [31] of over 89.1 µM, a TGI [31] of over 100 µM and a GI50 [32] of 6 µM. The TGI [32] was over 100 µM, the GI50 [33] was 2.55 µM and the TGI [33] was 7.71 µM. For the same molecule, the GI50 [34] was 2.6 µM, the TGI [34] was over 100 µM and the GI50 [35] was 7.01 µM. It also gave a TGI [35] of over 100 µM, a GI50 [36] of 4.46 µM and a TGI [36] of over 100 µM. For the same molecule, the GI50 [37] was 3.16 µM, the TGI [37] was 98.2 µM and the GI50 [58] was 3.05 µM. The TGI [58] was 45.9 µM, the GI50 [38] was 4.42 µM and the TGI [38] was 24.9 µM. It also gave a GI50 [39] of 3.52 µM, a TGI [39] of over 62.8 µM and a GI50 [40] of 3.9 µM. For the same molecule, the TGI [40] was over 100 µM, the GI50 [41] was 1.4 µM and the TGI [41] was 5.98 µM. For the same molecule, the GI50 [42] was 10.8 µM, the TGI [42] was over 100 µM and the GI50 [43] was 7.13 µM. For the same molecule, the TGI [43] was over 100 µM, the GI50 [44] was 13.8 µM and the TGI [44] was over 100 µM. The GI50 [45] was 3.88 µM, the TGI [45] was over 100 µM and the GI50 [46] was 4.88 µM. It also gave a TGI [46] of over 82.8 µM, a GI50 [47] of 6.89 µM and a TGI [47] of over 100 µM. For the same molecule, the GI50 [48] was over 100 µM, the TGI [48] was over 100 µM and the GI50 [49] was 7.86 µM. The TGI [49] was over 100 µM, the GI50 [50] was 4.02 µM and the TGI [50] was over 100 µM. The GI50 [51] was 8.71 µM, the TGI [51] was over 73.6 µM and the GI50 [52] was 5.73 µM. For the same molecule, the TGI [52] was over 100 µM, the GI50 [53] was 1.99 µM and the TGI [53] was over 20.8 µM. It also gave a GI50 [54] of 8.67 µM, a TGI [54] of over 100 µM and a GI50 [55] of 4.02 µM. The TGI [55] was over 100 µM.
Work on `CN(C)CCC=C1c2ccccc2C=Cc2ccccc21` yielded a TGI [1] of 27.5 µM, a TGI [2] of 31.9 µM and a TGI [3] of 28.9 µM. It also gave a TGI [4] of 39.6 µM, a TGI [56] of 31.1 µM and a TGI [5] of 28.7 µM. It also gave a TGI [6] of 31.1 µM, a TGI [7] of 52.3 µM and a TGI [8] of 30.7 µM. The TGI [9] was 32.5 µM, the TGI [10] was 32.8 µM and the TGI [12] was 31.3 µM. The TGI [13] was 18.5 µM, the TGI [14] was 29.3 µM and the TGI [15] was 42.3 µM. The TGI [57] was 38.2 µM, the TGI [16] was 29.5 µM and the TGI [18] was 31.5 µM. It also gave a TGI [19] of 42.6 µM, a TGI [20] of 29.8 µM and a TGI [21] of 68.1 µM. For the same molecule, the TGI [22] was 29.9 µM, the TGI [23] was 19.2 µM and the TGI [24] was 32.3 µM. For the same molecule, the TGI [25] was 33.1 µM, the TGI [26] was 32.6 µM and the TGI [27] was 30.9 µM. For the same molecule, the TGI [28] was 28.3 µM, the TGI [29] was 35 µM and the TGI [30] was 30.5 µM. For the same molecule, the TGI [31] was 35.4 µM, the TGI [32] was 35.1 µM and the TGI [33] was 30.9 µM. For the same molecule, the TGI [34] was 31.6 µM, the TGI [36] was 31.5 µM and the TGI [37] was 41.7 µM. The TGI [58] was 34.3 µM, the TGI [38] was 33 µM and the TGI [39] was 29.4 µM. For the same molecule, the TGI [40] was 56 µM, the TGI [41] was 42.8 µM and the TGI [42] was 36.5 µM. The TGI [43] was 35.3 µM, the TGI [44] was 34.9 µM and the TGI [45] was 35.7 µM. For the same molecule, the TGI [46] was 37 µM, the TGI [48] was 31.4 µM and the TGI [49] was 30.3 µM. For the same molecule, the TGI [50] was 30.5 µM, the TGI [51] was 29.8 µM and the TGI [52] was 31.2 µM. It also gave a TGI [53] of 32 µM, a TGI [54] of 31.8 µM and a TGI [55] of 44.8 µM.

Source: PubChem BioAssay (NCI)
